# Assay results as given in patent US8791264B2 (Purdue Pharma L.P., priority 2006, dated 2014).
# Target: T1, N-type calcium channel (NTCC) (Homo sapiens, UniProt Q00975)
# T1 construct: host or cells: IMR32 cells differentiated with dibutyryl cAMP and bromodeoxyuridine
# Experiment: FLIPR calcium mobilization assay for N-type calcium channel
# Type: cell-based
# Conditions: calcium mobilization in vitro assay; differentiated IMR32 cells
# Method: Unless noted otherwise, cell culture reagents were purchased from Mediatech of Herndon, Md. IMR32 cells (American Type Culture Collection, ATCC, Manassas, Va.) were routinely cultured in growth medium consisting of minimum essential medium containing 10% fetal bovine serum (FBS, Hyclone, Logan, Utah), 100 U/mL penicillin, 100 μg/mL streptomycin, 2 mM L-glutamine, 1 mM sodium pyruvate, and 1× MEM non-essential amino acids. 80-90% confluent flasks of cells were differentiated using the following differentiation medium: Growth medium plus 1 mM dibutyryl cyclic AMP (Sigma, St. Louis, Mo.), and 2.5 μM bromodeoxyuridine (Sigma). Cells were differentiated for 8 days by replacing differentiation medium every 2-3 days.
# FLIPR Calcium Mobilization Assay for N-Type Calcium Channel.
# One day prior to performing this assay, differentiated IMR32 cells were treated with 1× CellStripper, and seeded on poly-D-lysine-coated 96-well clear-bottom black plates (Becton Dickinson, Franklin Lakes, N.J.) at 200,000 cells/well. On the day of the assay, the cell plates were washed with IMR32 buffer (127 mM NaCl, 1 mM KCl, 2 mM MgCl2, 700 μM NaH2PO4, 5 mM CaCl2, 5 mM NaHCO3, 8 mM HEPES, 10 mM glucose, pH 7.4), then pre-stimulated with KCl and loaded as follows: 0.05 mL of IMR32 buffer, 0.05 mL of each compound tested diluted in IMR32 buffer containing 20 μM nitrendipine (Sigma), and 0.1 mL KCl dissolved in IMR32 buffer, plus Fluo-4 were added (3 μM final concentration, Molecular Probes, Eugene, Oreg.). Final test compound concentrations ranged from about 846 pM to about 17 μM, final nitrendipine concentration was 5 μM, and final KCl concentration was 90 mM. After 1 hour, the cells were washed twice with 0.05 mL of each compound is tested in nitrendipine-containing IMR32 buffer (no KCl or Fluo-4), and then replaced with 0.1 mL of each compound tested in nitrendipine-containing IMR32 buffer. Plates were then transferred to a Fluorimetric Imaging Plate Reader (FLIPR^96, Molecular Devices, Inc., Sunnyvale, Calif.) for assay. The FLIPR measured basal Fluo-4 fluorescence for 315 seconds (i.e., 5 minutes and 15 seconds), then added 0.1 mL KCl agonist dissolved in IMR32 buffer and measured fluorescence for another 45 seconds. Final test compound concentrations on the cells after FLIPR read ranged from about 846 pM to about 17 μM, final nitrendipine concentration was 5 μM, and final KCl concentration was 90 mM. Data were collected over the entire time course and analyzed using Excel, Graph Pad Prism (version 3.02, Graph Pad, San Diego, Calif.), or an in-house non-linear regression analysis software.
# T1 sequence (Q00975 whole entry): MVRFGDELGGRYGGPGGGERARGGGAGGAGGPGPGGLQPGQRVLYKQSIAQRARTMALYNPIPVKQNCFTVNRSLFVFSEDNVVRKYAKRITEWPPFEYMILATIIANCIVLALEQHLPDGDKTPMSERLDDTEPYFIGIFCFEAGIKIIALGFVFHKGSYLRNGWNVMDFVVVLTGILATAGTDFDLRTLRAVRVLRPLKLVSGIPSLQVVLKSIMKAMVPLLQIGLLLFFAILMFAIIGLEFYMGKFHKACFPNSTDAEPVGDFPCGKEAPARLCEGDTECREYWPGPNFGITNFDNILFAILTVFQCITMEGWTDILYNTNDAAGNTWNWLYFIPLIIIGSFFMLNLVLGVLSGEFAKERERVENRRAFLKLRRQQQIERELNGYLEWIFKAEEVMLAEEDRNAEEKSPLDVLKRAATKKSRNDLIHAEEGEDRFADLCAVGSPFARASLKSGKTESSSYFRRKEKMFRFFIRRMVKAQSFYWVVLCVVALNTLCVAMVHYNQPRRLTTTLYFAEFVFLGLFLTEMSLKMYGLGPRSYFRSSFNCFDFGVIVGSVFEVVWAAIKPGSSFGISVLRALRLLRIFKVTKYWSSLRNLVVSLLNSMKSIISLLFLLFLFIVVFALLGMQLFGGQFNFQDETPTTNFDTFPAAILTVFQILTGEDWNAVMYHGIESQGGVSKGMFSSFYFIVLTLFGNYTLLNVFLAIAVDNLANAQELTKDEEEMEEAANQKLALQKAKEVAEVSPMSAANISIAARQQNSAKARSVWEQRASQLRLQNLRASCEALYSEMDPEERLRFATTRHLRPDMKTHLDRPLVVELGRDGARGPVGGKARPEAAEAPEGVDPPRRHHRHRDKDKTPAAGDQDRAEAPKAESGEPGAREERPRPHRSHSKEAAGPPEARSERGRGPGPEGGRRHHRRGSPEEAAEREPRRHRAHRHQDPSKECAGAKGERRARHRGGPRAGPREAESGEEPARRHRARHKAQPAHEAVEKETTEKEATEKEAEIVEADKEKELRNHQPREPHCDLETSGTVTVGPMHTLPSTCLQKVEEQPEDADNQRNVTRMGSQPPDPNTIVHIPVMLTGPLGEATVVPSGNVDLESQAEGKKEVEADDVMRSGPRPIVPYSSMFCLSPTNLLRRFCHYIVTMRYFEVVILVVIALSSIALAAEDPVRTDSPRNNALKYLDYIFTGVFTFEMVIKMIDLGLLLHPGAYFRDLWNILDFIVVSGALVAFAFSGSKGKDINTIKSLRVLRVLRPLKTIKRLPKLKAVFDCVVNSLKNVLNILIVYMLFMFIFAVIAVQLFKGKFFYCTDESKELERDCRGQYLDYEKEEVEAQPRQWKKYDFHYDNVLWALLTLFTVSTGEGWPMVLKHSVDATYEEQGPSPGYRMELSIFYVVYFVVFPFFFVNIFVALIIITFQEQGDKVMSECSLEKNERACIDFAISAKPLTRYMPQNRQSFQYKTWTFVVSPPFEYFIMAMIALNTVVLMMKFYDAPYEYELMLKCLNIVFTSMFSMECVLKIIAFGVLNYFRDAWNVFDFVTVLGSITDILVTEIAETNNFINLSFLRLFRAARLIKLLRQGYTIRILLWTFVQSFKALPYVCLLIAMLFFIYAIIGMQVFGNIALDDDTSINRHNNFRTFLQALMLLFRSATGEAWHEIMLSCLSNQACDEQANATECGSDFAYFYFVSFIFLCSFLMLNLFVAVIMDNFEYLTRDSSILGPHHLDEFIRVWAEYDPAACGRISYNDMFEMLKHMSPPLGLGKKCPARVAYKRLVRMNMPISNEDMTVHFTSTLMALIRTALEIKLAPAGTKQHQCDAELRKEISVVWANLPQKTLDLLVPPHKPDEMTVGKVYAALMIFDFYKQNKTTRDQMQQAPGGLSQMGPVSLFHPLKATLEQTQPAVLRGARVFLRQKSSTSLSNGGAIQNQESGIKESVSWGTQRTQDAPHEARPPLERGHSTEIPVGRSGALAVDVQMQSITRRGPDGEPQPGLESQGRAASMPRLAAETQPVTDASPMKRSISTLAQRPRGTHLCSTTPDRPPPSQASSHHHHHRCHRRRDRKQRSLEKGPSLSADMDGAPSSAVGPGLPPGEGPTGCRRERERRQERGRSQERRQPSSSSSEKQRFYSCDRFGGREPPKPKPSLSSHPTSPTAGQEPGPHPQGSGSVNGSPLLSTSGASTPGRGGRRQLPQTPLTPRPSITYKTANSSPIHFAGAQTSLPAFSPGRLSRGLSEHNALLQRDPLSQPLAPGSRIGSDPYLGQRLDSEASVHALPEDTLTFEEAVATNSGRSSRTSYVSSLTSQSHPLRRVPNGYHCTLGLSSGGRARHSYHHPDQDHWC
# T1 sequence (P54289 25-956 partner limits assumed): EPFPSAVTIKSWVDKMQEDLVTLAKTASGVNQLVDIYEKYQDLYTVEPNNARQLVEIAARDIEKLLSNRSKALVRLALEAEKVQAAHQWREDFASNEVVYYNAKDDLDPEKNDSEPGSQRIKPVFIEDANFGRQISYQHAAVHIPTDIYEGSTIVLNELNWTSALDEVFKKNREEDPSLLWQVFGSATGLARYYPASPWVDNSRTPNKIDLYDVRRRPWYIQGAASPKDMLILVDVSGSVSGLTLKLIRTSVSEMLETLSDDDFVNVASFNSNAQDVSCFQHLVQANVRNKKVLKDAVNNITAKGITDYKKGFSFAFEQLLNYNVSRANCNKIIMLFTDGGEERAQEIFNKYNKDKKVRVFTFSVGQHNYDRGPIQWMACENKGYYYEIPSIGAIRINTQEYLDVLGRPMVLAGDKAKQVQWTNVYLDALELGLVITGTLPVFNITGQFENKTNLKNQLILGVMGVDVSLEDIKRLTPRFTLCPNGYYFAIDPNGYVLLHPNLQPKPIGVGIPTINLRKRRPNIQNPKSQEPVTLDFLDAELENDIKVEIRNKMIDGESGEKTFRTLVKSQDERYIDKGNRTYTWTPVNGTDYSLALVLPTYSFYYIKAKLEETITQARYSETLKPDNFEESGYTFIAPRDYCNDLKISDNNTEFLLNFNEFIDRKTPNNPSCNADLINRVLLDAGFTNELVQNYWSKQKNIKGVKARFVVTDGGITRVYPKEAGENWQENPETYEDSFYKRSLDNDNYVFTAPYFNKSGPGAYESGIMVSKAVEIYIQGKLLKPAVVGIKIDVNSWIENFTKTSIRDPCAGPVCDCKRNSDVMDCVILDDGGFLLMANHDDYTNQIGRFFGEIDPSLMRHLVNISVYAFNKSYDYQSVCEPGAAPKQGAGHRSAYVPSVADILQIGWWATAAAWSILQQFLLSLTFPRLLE
# T1 sequence (P54289 957-1103 partner limits assumed): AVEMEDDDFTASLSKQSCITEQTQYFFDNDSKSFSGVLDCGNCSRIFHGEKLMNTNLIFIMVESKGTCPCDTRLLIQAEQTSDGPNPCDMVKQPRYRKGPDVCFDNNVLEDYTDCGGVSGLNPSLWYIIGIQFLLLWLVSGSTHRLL
# T1 sequence (P54284 whole entry partner): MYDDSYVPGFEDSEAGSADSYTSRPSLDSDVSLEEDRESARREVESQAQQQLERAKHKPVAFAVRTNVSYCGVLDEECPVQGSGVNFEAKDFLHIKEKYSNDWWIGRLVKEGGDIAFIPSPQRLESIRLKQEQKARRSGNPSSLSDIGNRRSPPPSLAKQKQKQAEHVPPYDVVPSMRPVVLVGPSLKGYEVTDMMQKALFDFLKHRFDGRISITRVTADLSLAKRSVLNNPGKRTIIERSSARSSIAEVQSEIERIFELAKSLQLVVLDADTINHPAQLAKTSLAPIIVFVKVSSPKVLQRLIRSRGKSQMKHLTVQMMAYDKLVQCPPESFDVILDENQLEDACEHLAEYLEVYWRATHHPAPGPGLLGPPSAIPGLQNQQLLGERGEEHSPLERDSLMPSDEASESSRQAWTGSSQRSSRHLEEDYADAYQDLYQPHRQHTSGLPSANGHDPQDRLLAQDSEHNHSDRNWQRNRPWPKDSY
row,Molecule,IC50 [nM]
1,"Cc1cccc(S(=O)(=O)N(C2CC2)C2CCN(CC(=O)Nc3ccc(F)cc3)CC2)c1 [Compound 45, 2-{4-[Cyclopropyl-(toluene-3-sulfonyl)amino]-piperidin-1-yl}-N-(4-fluorophenyl)acetamide]",1390
2,"COc1ccc(Cl)cc1NC(=O)CN1CCC(N(C2CC2)S(=O)(=O)c2cccc(C(F)(F)F)c2)CC1 [Compound 82, N-(5-Chloro-2-methoxyphenyl)-2-{4-[cyclopropyl-(3-trifluoromethyl-benzenesulfonyl)amino]-piperidin-1-yl}-acetamide]",3990
3,"O=C(CN1CCC(N(C2CC2)S(=O)(=O)c2cccc(C(F)(F)F)c2)CC1)Nc1ccc(C(F)(F)F)cc1C(F)(F)F [Compound 72, N-(2,4-Bis-trifluoromethylphenyl)-2-{4-[cyclopropyl-(3-trifluoromethylbenzenesulfonyl)amino]-piperidin-1-yl}-acetamide]",> 20000
4,"O=C(CN1CCC(NS(=O)(=O)c2cccc(C(F)(F)F)c2)CC1)Nc1ccc(F)cc1 [Compound 116, N-(4-Fluorophenyl)-2-[4-(3-trifluoromethylbenzenesulfonylamino)-piperidin-1-yl]-acetamide]",1240
5,CC(C)N(C1CCN(C(=O)C(C)(C)N)CC1)S(=O)(=O)c1cccc(C(F)(F)F)c1 [N-[1-(2-amino-2-methyl-propionyl)-piperidin-4-yl]-N-isopropyl-3-trifluoromethylbenzenesulfonamide],9390
6,"O=C(CN1CCC(N(C2CC2)S(=O)(=O)c2cccc(Cl)c2)CC1)Nc1cc(C(F)(F)F)cc(C(F)(F)F)c1 [Compound 66, N-(3,5-Bis-trifluoromethylphenyl)-2-{4-[(3-chlorobenzenesulfonyl)-cyclopropylamino]-piperidin-1-yl}-acetamide]",2530
7,"O=C(CN1CCC(N(C2CC2)S(=O)(=O)c2cccc(F)c2)CC1)Nc1ccc(F)cc1 [Compound 46, 2-{4-[Cyclopropyl-(3-fluorobenzenesulfonyl)amino]-piperidin-1-yl}-N-(4-fluorophenyl)acetamide]",2030
8,"O=C(CC(=O)N1CCC(NS(=O)(=O)c2cccc(C(F)(F)F)c2)CC1)Nc1ccc(F)cc1F [Compound 115, N-(2,4-Difluorophenyl)-3-oxo-3-[4-(3-trifluoromethylbenzenesulfonylamino)-piperidin-1-yl]-propionamide]",3180
9,"O=C(CN1CCC(N(C2CC2)S(=O)(=O)c2cccc(C(F)(F)F)c2)CC1)Nc1ccc(Cl)cc1OC(F)(F)F [Compound 76, N-(4-Chloro-2-trifluoromethoxyphenyl)-2-{4-[cyclopropyl-(3-trifluoromethylbenzenesulfonyl)amino]-piperidin-1-yl}-acetamide]",1830
10,CC(C)N(C1CCN(C(=O)C(N)Cc2csc3ccccc23)CC1)S(=O)(=O)c1cccc(C(F)(F)F)c1 (centres unmarked) [N-[1-(2-amino-3-benzo[b]thiophen-3-yl-propionyl)-piperidin-4-yl]-N-isopropyl-3-trifluoromethyl-benzenesulfonamide],470
11,"COCCNCC(=O)N1CCC(N(C(C)C)S(=O)(=O)c2cccc(C(F)(F)F)c2)CC1 [Compound 95, N-Isopropyl-N-{1-[2-(2-methoxy-ethylamino)acetyl]-piperidin-4-yl}-3-trifluoromethylbenzenesulfonamide]",2240
12,CC(C)NC(=O)C(=O)N1CCC(N(C2CC2)S(=O)(=O)c2cccc(C(F)(F)F)c2)CC1 [2-{4-[cyclopropyl-(3-trifluoromethylbenzenesulfonyl)-amino]-piperidin-1-yl}-N-isopropyl-2-oxo-acetamide],3200
13,"CN(C1CCN(CC(=O)Nc2cc(C(F)(F)F)cc(C(F)(F)F)c2)CC1)S(=O)(=O)c1ccccc1 [Compound 68, 2-[4-(Benzenesulfonyl-methyl-amino)-piperidin-1-yl]-N-(3,5-bis-trifluoromethylphenyl)-acetamide]",1590
14,"NCCN1CCC(N(C2CC2)S(=O)(=O)c2cccc(C(F)(F)F)c2)CC1 [Compound 114, N-[1-(2-Aminoethyl)-piperidin-4-yl]-N-cyclopropyl-3-trifluoromethylbenzenesulfonamide]",1490
15,"CCC(NCc1ccccc1)C(=O)N1CCC(N(C(C)C)S(=O)(=O)c2cccc(C(F)(F)F)c2)CC1 (centres unmarked) [Compound 91, N-[1-(2-Benzylaminobutyryl)-piperidin-4-yl]-N-isopropyl-3-trifluoromethylbenzenesulfonamide]",1150
16,CC(C)N(C1CCN(C(=O)CC(N)c2cccs2)CC1)S(=O)(=O)c1cccc(C(F)(F)F)c1 (centres unmarked) [N-[1-(3-amino-3-thiophen-2-yl-propionyl)-piperidin-4-yl]-N-isopropyl-3-trifluoromethyl-benzenesulfonamide],1100
17,"O=C(CC(=O)N1CCC(N(C2CC2)S(=O)(=O)c2cccc(Cl)c2)CC1)Nc1ccc(F)cc1F [Compound 29, 3-{4-[(3-Chlorobenzenesulfonyl)-cyclopropylamino]-piperidin-1-yl}-N-(2,4-difluorophenyl)-3-oxo-propionamide]",8860
18,2-[4-(Benzenesulfonylmethylamino)-piperidin-1-yl]-N-(4-fluorophenyl)acetamide [Compound 47],2950
19,CC(C)N(C1CCN(C(=O)CCNc2ccc(C#N)cc2)CC1)S(=O)(=O)c1cccc(C(F)(F)F)c1 [N-{1-[3-(4-cyano-phenylamino)-propionyl]-piperidin-4-yl}-N-isopropyl-3-trifluoromethyl-benzenesulfonamide],1390
20,CC(C)N(C1CCN(C(=O)C2(N)CCOCC2)CC1)S(=O)(=O)c1cccc(C(F)(F)F)c1 [N-[1-(4-amino-tetrahydro-pyran-4-carbonyl)-piperidin-4-yl]-N-isopropyl-3-trifluoromethyl-benzenesulfonamide],8330
21,"CC(C)CNC(=O)CN1CCC(N(C2CC2)S(=O)(=O)c2ccccc2)CC1 [Compound 37, 2-[4-(Benzenesulfonyl-cyclopropylamino)-piperidin-1-yl]-N-isobutylacetamide]",> 20000
22,"CC(C)CNC(=O)CCN1CCC(N(C(C)C)S(=O)(=O)c2cccc(C(F)(F)F)c2)CC1 [Compound 107c, N-Isobutyl-3-{4-[isopropyl-(3-trifluoromethylbenzenesulfonyl)amino]-piperidin-1-yl}-propionamide]",2000
23,C#CCC(N)C(=O)N1CCC(N(C(C)C)S(=O)(=O)c2cccc(C(F)(F)F)c2)CC1 (centres unmarked) [N-[1-(2-amino-pent-4-ynoyl)-piperidin-4-yl]-N-isopropyl-3-trifluoromethyl-benzenesulfonamide],5960
24,"O=C(CNCc1ccc(F)cc1)N1CCC(N(C2CC2)S(=O)(=O)c2ccccc2)CC1 [Compound 98, N-Cyclopropyl-N-{1-[2-(4-fluorobenzylamino)acetyl]-piperidin-4-yl}-benzenesulfonamide]",2670
25,"CC(C)N(C1CCN(CC(N)=O)CC1)S(=O)(=O)c1cccc(C(F)(F)F)c1 [Compound 33, 2-{4-[Isopropyl-(3-trifluoromethylbenzenesulfonyl)amino]-piperidin-1-yl}-acetamide]",10000 to 20000
26,"COc1ccc(CNCC(=O)N2CCC(N(C3CC3)S(=O)(=O)c3ccccc3)CC2)cc1 [Compound 97, N-Cyclopropyl-N-{1-[2-(4-methoxy-benzylamino)acetyl]-piperidin-4-yl}-benzenesulfonamide]",2360
27,"O=C(CN1CCC(N(C2CC2)S(=O)(=O)c2cccc(C(F)(F)F)c2)CC1)Nc1cc(C(F)(F)F)ccc1Cl [Compound 77, N-(2-Chloro-5-trifluoromethylphenyl)-2-{4-[cyclopropyl-(3-trifluoromethylbenzenesulfonyl)amino]-piperidin-1-yl}-acetamide]",6630
28,"Cc1cccc(S(=O)(=O)N(C2CC2)C2CCN(CC(=O)NCC(C)C)CC2)c1 [Compound 35, 2-{4-[Cyclopropyl-(toluene-3-sulfonyl)amino]-piperidin-1-yl}-N-isobutylacetamide]",5930
29,"O=C(CN1CCC(N(C2CC2)S(=O)(=O)c2ccc(Cl)cc2)CC1)Nc1cc(C(F)(F)F)cc(C(F)(F)F)c1 [Compound 67, N-(3,5-Bis-trifluoromethylphenyl)-2-{4-[(4-chlorobenzenesulfonyl)-cyclopropylamino]-piperidin-1-yl}-acetamide]",4170
